pKd: −log10 of the molar value. Positions of bridges follow the written chain, without caps; N, C: chain ends. Residues, ends and D or L forms follow the SMILES beside them. No end group written: not given here. *: point of attachment. Biotin = O=C1N[C@H]2[C@H](CS[C@H]2CCCCC(=O)*)N1; Ahx = NCCCCCC(=O)O
Legend:
human IgG [1] = assay: ELISA assay of biotinylated synthetic peptides on human IgG; type: binding; details: FIG. 6; for binding to human IgG: biotinylated peptide
Method: (§1) The binding activity of the thus obtained biotinylated synthetic peptides to human IgG was assayed by an ELISA assay. The ELISA assay was conducted basically in a manner similar to that in Example 1. Specifically, wells coated with human IgG (100 ng/50 μl/well) were blocked by the addition of 0.5% BSA. A biotinylated synthetic peptide and alkaline phosphatase-labeled streptavidin (SA-AP) were mixed in advance at a molar ratio of 4:1 and then the mixture was added to the well, followed by 1 hour of reaction. Para-nitrophenyl phosphate (Wako) was used for color development. Detection was carried out by measuring absorbance at 405 nm. As a positive control of human IgG, the Fc fragment of hIgG was used. As other control proteins, human IgA and IgE, mouse IgG, IgA, and IgE, hTF, fetal bovine serum (FBS), HSA, BSA, and gelatin were used.

[2] = system: human IgG isotypes (hIgG1 to hIgG4); assay: ELISA assay of biotinylated synthetic peptides on human IgG isotypes; type: binding; details: FIG. 7
Method: as §1
Furthermore, the binding activity of the biotinylated synthetic peptides to human IgG isotypes (hIgG1 to hIgG4), was assayed similarly by an ELISA assay. As a control protein of human IgG, BSA was used.

human IgG [3] = assay: SPR kinetic analysis of binding between synthetic peptides and human IgG; details: for association rate constants (ka) / dissociation rate constants (kd) / pKd: biotinylated peptide immobilized on sensor chip SA, human IgG as analyte, 25° C.; for pKd: read-out: Dissociation constants (Kd)
Method: Binding between the synthetic peptide IMGpep-1, IMGpep-1E6Q, IMGpep-4, or IMGpep-4K6R and human IgG was subjected to kinetic analysis of binding using surface plasmon resonance (SPR). SPR analysis was carried out using BIAcore2000 (BIAcore) at 25° C. Necessary reagents and sensor chips were purchased from BIAcore and then used. A 50 μM solution (pH 5) of each of four biotinylated synthetic peptides (IMGpep-1, IMGpep1E6Q, IMGpep4, and IMGpep-4K6R) was injected over a sensor chip SA, so as to immobilize the peptide on the chip. The amount of each peptide to be immobilized was adjusted so that the RU (response unit) ranged from 1500 to 2000. Subsequently, human IgG (analyte) was injected at a flow rate of 10 μl/min and at various concentrations (660 nM, 330 nM, 165 nM, 82 nM, and 41 nM) through flow cells with the aforementioned sensor chips SA on which the biotinylated-peptides had been immobilized. Binding reaction between human IgG and the peptides was measured. Thereafter, washing with running buffer (HBS-T) was conducted and then dissociation reaction was measured. For washing/elution of bound analytes from the sensor chips, 0.2 M glycine-HCl buffer (pH 2.7) was used. Binding parameters were analyzed using BIA evaluation Version 3.2 software.

Fc fragment of hIgG = assay: ELISA assay of biotinylated synthetic peptides on Fc fragment; type: binding, human; details: biotinylated peptide, FIG. 6
Method: as §1

human IgG [4] = assay: immunoprecipitation of human IgG with peptide- or phage-immobilized magnetic beads; type: binding; details: immobilized on magnetic beads, FIG. 9; for immunoprecipitated human IgG: western blotting
Method: The above cloned T7 phage G-1 (1.0×10^12 pfu) subjected to ultracentrifuge purification or a synthetic peptide IMGpep-1 (150 nmol) was immobilized on 3 mg of tosyl-activated M450 Dynabeads magnetic beads (Dynal) via covalent binding to the terminal amino group according to the protocols recommended by the manufacturer. The beads were blocked with a PBS solution containing 0.5% BSA and then added to 1 ml of hIgG/BSA/PBS (10 μg/ml hIgG and 1 mg/ml BSA), followed by 1 hour of reaction at room temperature while mixing the solution via stirring. Beads were washed 3 times with PBST, SDS-sample buffer was added thereto, and then SDS-PAGE fractionation was carried out. Subsequently, they were subjected to western blotting analysis using a biotinylated anti-hIgG goat polyclonal antibody (Goat Anti-hIgG-pAb-biotin; Pharmingen) and SA-HRP, and then human IgG immunoprecipitated by binding to beads was detected.
Furthermore, immunoprecipitation reaction was similarly carried out using phage clones G-1 415 or IMGpep-2 instead of phage G-1 or IMGpep-1 to detect human IgG. Here, the phage clone G-1 415 (Novagen) is a phage displaying G-1 peptide at all the 415 G10 proteins composing the capsid of T7 phage. Moreover, immunoprecipitation reaction and detection were similarly carried out using an anti-hIgG goat (Fab′)2 fragment, wild-type T7 phage, and BSA, as a control of phage G-1 or IMGpep-1.

anti-HER2 human IgG = target: T1, anti-HER2 human IgG (Homo sapiens, UniProt P01857); assay: separation on IMGpep-4K6R-immobilized column; type: binding; details: untreated anti-HER2 human IgG sample
T1 construct: purchased Herceptin
Method: Moreover, a biotinylated IMGPep-4K6R peptide (biotin-spacer-[…] (SEQ ID NO: 11)) solution (500 μM, 1 ml) was injected to a HiTrap Streptavidin HP column (GE Healthcare) to prepare the column in which IMGPep-4K6R was immobilized. The antibody sample was injected at a flow rate of 0.4 ml/min to the IMGPep-4K6R-immobilized column. Gradient elution was carried out using from 20 mM phosphate buffered saline (PBS, pH 7.0) containing 0.1 M NaCl to 0.1M glycine-HCl (pH 2.5) containing 0.1 M NaCl.

human IgG MRA = target: T2, human IgG MRA (Homo sapiens, UniProt P01857); assay: immunoprecipitation of MRA fractions with IMGpep-4K6R peptide; type: binding
T2 construct: purchased Chugai Pharmaceutical
Method: An immunoprecipitation experiment using an IMGpep-4K6R peptide was conducted by a method similar to that employed in Example 8 for each of an untreated MRA sample, an acid-treated MRA sample (acid treated for 10 minutes at pH 2.2 and 4° C.), a flow-through fraction obtained by passing an acid-treated MRA sample through a biotinylated IMGPep-4K6R peptide-immobilized column, and a purified acid-denatured MRA sample (an adsorbed fraction obtained by passing a human IgG sample subjected to 10 minutes of acid treatment at pH 2.2 and 4° C. through an IMGpep-4K6R peptide-immobilized column). IgG precipitated with the peptide immobilized on magnetic beads was subjected to 12.5% SDS-PAGE and then to CBB staining, and then observed.

human MRA (IgG) = target: T3, human MRA (IgG) (Homo sapiens, UniProt P01857); assay: dot blotting detection of human MRA (IgG) on nitrocellulose membranes; type: binding
T3 construct: purchased Chugai Pharmaceutical
Method: Specifically, acid-treated human MRA (IgG) and untreated human MRA (IgG) were spotted on nitrocellulose membranes in an amount of 1.5 ng, 3 ng, 6 ng, 12.5 ng, 25 ng, 50 ng, and 100 ng per spot. The membranes were dried for 5 minutes and then 0.5% BSA was added for blocking for 2 hours at room temperature. Here, acid-treated human MRA was prepared by adding 10 μl of 1 M glycine-HCl (pH 2.8) to 100 μl of humanized anti-human IL-6 receptor IgG antibody (MRA) (2000 μg/ml, PBS solution), carrying out incubation at 40° C. for 10 minutes, and then neutralizing it by the addition of 30 μl of 1 M Tris-HCl (pH 8.7).
The mixture was added to the membranes blocked as described above, followed by 1 hour of reaction. After 3 times of washing with PBS containing 0.1% Tween20, a chemiluminescence reagent (Chemi-Lumi One, Nakalai Tesque) was added. Images were analyzed for detection using a LAS-1000 Image Analyzer (Fuji Film).

IgG antibody = details: literature (DeLano et al.; Dias et al.); cited from earlier work

T3 sequence (P01857 1-330 isoform P01857-1, other chains not shown): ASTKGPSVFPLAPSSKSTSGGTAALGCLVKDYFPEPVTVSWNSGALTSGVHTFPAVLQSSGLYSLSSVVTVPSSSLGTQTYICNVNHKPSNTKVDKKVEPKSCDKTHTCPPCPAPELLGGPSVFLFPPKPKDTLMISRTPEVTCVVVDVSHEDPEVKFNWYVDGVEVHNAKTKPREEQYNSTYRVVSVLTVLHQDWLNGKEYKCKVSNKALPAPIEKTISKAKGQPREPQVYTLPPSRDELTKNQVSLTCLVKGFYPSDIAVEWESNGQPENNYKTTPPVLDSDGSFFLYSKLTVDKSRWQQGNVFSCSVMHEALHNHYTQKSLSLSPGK
T2 sequence (P01857 1-330 isoform P01857-1, other chains not shown): as above
T1 sequence (P01857 1-330 isoform P01857-1, other chains not shown): as above

binding activity to human IgG1, IgG2, IgG3, and IgG4 [2] | association rate constants (ka) (human IgG [3]) | dissociation rate constants (kd) (human IgG [3]) | pKd (human IgG [3]) | binding to human IgG (human IgG [1]) | Compound | other results
strong binding activity | 15000 M⁻¹ s⁻¹ | 0.00031 s⁻¹ | 7.68 | – | CC(C)C[C@@H]1NC(=O)CNC(=O)[C@H](Cc2c[nH]c3ccccc23)NC(=O)[C@H](CCC(N)=O)NC(=O)[C@H](CO)NC(=O)[C@H](CCCNC(=N)N)NC(=O)[C@H](Cc2c[nH]c3ccccc23)NC(=O)[C@H](Cc2ccc(O)cc2)NC(=O)CNC(=O)[C@@H](NC(=O)CNC(=O)CCCCCNC(=O)CCCC[C@@H]2SC[C@@H]3NC(=O)N[C@@H]32)CSSC[C@@H](C(=O)NCC(=O)O)NC1=O [IMGpep-1E6Q] ({Biotin-Ahx}-GCGYWRSQWGLCG-OH; disulfide 2-12) | binding activity compared with the original peptides IMGpep-1 and IMGpep-4 (human IgG [1]): significantly and drastically increased; binding activity to human IgG1 to IgG4 relative to IMGpep-1 and IMGpep-4 [2]: increase to a greater extent
strong binding activity | 20000 M⁻¹ s⁻¹ | 0.00034 s⁻¹ | 7.77 | specifically bound to human IgG | CC(C)C[C@@H]1NC(=O)CNC(=O)[C@H](Cc2c[nH]c3ccccc23)NC(=O)[C@H](CCC(=O)O)NC(=O)[C@H](CO)NC(=O)[C@H](CCCNC(=N)N)NC(=O)[C@H](Cc2c[nH]c3ccccc23)NC(=O)[C@H](Cc2ccc(O)cc2)NC(=O)CNC(=O)[C@@H](NC(=O)CNC(=O)CCCCCNC(=O)CCCC[C@@H]2SC[C@@H]3NC(=O)N[C@@H]32)CSSC[C@@H](C(=O)NCC(=O)O)NC1=O [IMGpep-1] ({Biotin-Ahx}-GCGYWRSEWGLCG-OH; disulfide 2-12) | binding to the Fc fragment of human IgG (Fc fragment of hIgG): bound to the Fc fragment of human IgG; human IgG trapping efficiency compared with IMGpep-2 (human IgG [4]): clearly higher; immunoprecipitated human IgG (human IgG [4]): clearly observed
strong binding activity | 16000 M⁻¹ s⁻¹ | 0.00038 s⁻¹ | 7.62 | – | CC(C)C[C@@H]1NC(=O)CNC(=O)[C@H](Cc2c[nH]c3ccccc23)NC(=O)[C@H](C)NC(=O)[C@H](CCCNC(=N)N)NC(=O)[C@@H]2CCCN2C(=O)[C@H](Cc2c[nH]c3ccccc23)NC(=O)[C@H](Cc2ccc(O)cc2)NC(=O)CNC(=O)[C@H]([C@@H](C)O)NC(=O)[C@@H](NC(=O)CNC(=O)CCCCCNC(=O)CCCC[C@@H]2SC[C@@H]3NC(=O)N[C@@H]32)CSSC[C@@H](C(=O)NCC(=O)O)NC1=O [IMGpep-4K6R] | binding activity compared with the original peptides IMGpep-1 and IMGpep-4 (human IgG [1]): significantly and drastically increased; binding activity to human IgG1 to IgG4 relative to IMGpep-1 and IMGpep-4 [2]: increase to a greater extent; behaviour of IgG on the column (anti-HER2 human IgG): passed through; immunoprecipitation of MRA antibody (human IgG MRA; flow-through fraction of acid-treated MRA, lane 4): never observed; immunoprecipitation of MRA antibody (human IgG MRA; untreated MRA, lane 1): not immunoprecipitated; antibody sample sufficiently detected (human MRA (IgG); acid-treated MRA (pH 2.8, 40° C., 10 minutes), K6R(A)): ≤ 1.5 ng/mL; IgG-detection sensitivity and intensity after acid treatment (human MRA (IgG); acid-treated MRA, K6R(A)): greatly enhanced; lowest spot of untreated human MRA (IgG) detected (human MRA (IgG); untreated MRA, K6R(N)): ≤ 1.5 ng/mL; overall signal intensity of the detected spots (human MRA (IgG); untreated MRA, K6R(N)): significantly weak
strong binding activity | 14000 M⁻¹ s⁻¹ | 0.00041 s⁻¹ | 7.55 | specifically bound to human IgG | CC(C)C[C@@H]1NC(=O)CNC(=O)[C@H](Cc2c[nH]c3ccccc23)NC(=O)[C@H](C)NC(=O)[C@H](CCCCN)NC(=O)[C@@H]2CCCN2C(=O)[C@H](Cc2c[nH]c3ccccc23)NC(=O)[C@H](Cc2ccc(O)cc2)NC(=O)CNC(=O)[C@H]([C@@H](C)O)NC(=O)[C@@H](NC(=O)CNC(=O)CCCCCNC(=O)CCCC[C@@H]2SC[C@@H]3NC(=O)N[C@@H]32)CSSC[C@@H](C(=O)NCC(=O)O)NC1=O [IMGpep-4] ({Biotin-Ahx}-GCTGYWPKAWGLCG-OH; disulfide 2-13) | binding to the Fc fragment of human IgG (Fc fragment of hIgG): bound to the Fc fragment of human IgG
– | – | – | – | – | DCAWHLGELVWCT [Fc-III] | pKd (IgG antibody): 6.73
– | – | – | – | – | GCTGFWEREWGLCG [IMGpep-2] | immunoprecipitated human IgG (human IgG [4]): clearly observed

Compound | binding activity to human IgG1, IgG2, IgG3, and IgG4 [2] | association rate constants (ka) (human IgG [3]) | dissociation rate constants (kd) (human IgG [3]) | pKd (human IgG [3]) | binding to human IgG (human IgG [1]) | other results
GSGYWRSEWGLSG ({Biotin-Ahx}-GSGYWRSEWGLSG) [IMGpep-1CS] | almost completely lose its binding activity | – | – | – | almost lose the binding activity | increased response signal due to the binding (human IgG [3]; control ligand immobilized, human IgG injected): never observed; detection of spots of untreated human MRA (IgG) (human MRA (IgG); untreated MRA, CS(N)): could not detect any spots
